Like-named read-outs stand apart in the source and are kept apart here.
Legend:
MRSA (QA-11.7) = test: MIC, broth microdilution; format: cell-based, S. aureus; settings: Staphylococcus aureus
Protocol: (§1) For the determination of minimum inhibitory concentrations (MIC), the broth microdilution method was used in 96-well plate format, according to the guidelines of the Clinical and Laboratory Standards Institute and the recommendations of the European Committee on Antimicrobial Susceptibility Testing (EUCAST). The dilutions of the bacterial suspension of the specific bacterial strain, corresponding to the 0.5 McFarland turbidity standard, were prepared with […] Mueller–Hinton broth with TES (Thermo Fisher Scientific) to obtain an end inoculum of 10^5 CFU/mL. The compounds were dissolved in DMSO and mixed with the inoculum. […] The MIC was determined as the lowest concentration of antibiotic that prevented visible bacterial growth. Tetracycline was used as a positive control on each test plate.

MRSA(QA-12.1) = test: MIC, broth microdilution; format: cell-based, S. aureus; settings: Staphylococcus aureus
Protocol: as §1

MRSA (QA-11.2) = test: MIC, broth microdilution; format: cell-based, S. aureus; settings: Staphylococcus aureus
Protocol: as §1

S. aureus topoIV = biological target: T1, S. aureus topoIV (Staphylococcus aureus, UniProt P0C1U9); test: biochemical; settings: relaxation inhibition; mean of two independent measurements ± SD
T1 construct: purchased Inspiralis (Norwich, UK)
Protocol: (§2) To determine the IC50 values of the compounds for S. aureus and E. coli, a DNA gyrase supercoiling high-throughput plate assay and a topoIV relaxation high-throughput plate assay were performed. Assay kits and black streptavidin-coated 96-well microtiter plates are available from Inspiralis (Norwich, UK). For pre-screening, an inhibitor concentration of 100 μM was used. […] A nonlinear regression-based fit of the inhibition curves was used, with the log [inhibitor] versus slope of the reaction variables (four parameters) and a symmetric equation. […] To determine IC50 values, two independent repetitions were performed and the average was calculated.

S. aureus DNA gyrase = biological target: T2, S. aureus DNA gyrase (Staphylococcus aureus, UniProt P20831); test: biochemical; settings: supercoiling inhibition; mean of two independent measurements ± SD
T2 construct: purchased Inspiralis (Norwich, UK)
Protocol: as §2

E. coli topoIV = biological target: T3, E. coli topoIV (Escherichia coli, UniProt P0AFI2); test: topoIV relaxation inhibition assay (high-throughput plate assay); format: biochemical
T3 construct: purchased Inspiralis (Norwich, UK)
T3 sequence (P20083 whole entry): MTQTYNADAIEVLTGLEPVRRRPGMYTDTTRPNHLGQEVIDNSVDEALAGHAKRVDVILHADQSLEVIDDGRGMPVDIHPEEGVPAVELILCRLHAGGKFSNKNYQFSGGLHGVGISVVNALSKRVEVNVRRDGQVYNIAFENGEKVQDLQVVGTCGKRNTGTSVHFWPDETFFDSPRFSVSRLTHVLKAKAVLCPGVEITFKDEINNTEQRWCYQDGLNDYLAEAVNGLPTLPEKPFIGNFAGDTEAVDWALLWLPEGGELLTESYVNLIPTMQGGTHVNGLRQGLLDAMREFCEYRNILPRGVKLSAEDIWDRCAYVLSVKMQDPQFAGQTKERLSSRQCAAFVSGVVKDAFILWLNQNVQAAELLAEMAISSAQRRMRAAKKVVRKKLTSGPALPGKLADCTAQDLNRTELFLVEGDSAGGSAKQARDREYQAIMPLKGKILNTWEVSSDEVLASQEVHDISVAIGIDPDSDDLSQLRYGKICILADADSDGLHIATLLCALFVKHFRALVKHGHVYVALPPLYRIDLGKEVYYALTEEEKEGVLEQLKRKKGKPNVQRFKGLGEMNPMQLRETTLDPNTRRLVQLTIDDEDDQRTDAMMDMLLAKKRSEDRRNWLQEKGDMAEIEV
T3 sequence (P0AFI2 whole entry): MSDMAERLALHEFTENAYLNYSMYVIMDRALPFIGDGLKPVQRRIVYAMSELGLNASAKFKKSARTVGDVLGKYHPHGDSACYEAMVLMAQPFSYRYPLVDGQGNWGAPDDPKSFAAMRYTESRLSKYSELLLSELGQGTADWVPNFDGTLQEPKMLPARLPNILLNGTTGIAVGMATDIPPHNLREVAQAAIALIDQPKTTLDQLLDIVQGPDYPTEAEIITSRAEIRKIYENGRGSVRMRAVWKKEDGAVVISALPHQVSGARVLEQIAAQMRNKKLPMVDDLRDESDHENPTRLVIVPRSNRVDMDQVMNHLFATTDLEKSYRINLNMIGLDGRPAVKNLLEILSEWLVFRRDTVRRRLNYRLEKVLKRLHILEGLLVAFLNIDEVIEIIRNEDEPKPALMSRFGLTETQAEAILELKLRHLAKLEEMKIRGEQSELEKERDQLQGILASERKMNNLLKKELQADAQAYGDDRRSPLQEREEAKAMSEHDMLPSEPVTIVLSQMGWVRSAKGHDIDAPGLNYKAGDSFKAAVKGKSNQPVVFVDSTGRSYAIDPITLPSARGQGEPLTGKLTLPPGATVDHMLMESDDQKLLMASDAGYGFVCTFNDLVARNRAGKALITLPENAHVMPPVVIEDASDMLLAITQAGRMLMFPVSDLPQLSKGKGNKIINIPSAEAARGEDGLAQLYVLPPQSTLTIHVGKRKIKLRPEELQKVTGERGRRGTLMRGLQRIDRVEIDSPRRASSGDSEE
Protocol: as §2

E. coli DNA gyrase = biological target: T4, E. coli DNA gyrase (Escherichia coli, UniProt P0AES4); test: DNA gyrase supercoiling inhibition assay (high-throughput plate assay); format: biochemical
T4 construct: purchased Inspiralis (Norwich, UK)
T4 sequence (P0AES4 whole entry): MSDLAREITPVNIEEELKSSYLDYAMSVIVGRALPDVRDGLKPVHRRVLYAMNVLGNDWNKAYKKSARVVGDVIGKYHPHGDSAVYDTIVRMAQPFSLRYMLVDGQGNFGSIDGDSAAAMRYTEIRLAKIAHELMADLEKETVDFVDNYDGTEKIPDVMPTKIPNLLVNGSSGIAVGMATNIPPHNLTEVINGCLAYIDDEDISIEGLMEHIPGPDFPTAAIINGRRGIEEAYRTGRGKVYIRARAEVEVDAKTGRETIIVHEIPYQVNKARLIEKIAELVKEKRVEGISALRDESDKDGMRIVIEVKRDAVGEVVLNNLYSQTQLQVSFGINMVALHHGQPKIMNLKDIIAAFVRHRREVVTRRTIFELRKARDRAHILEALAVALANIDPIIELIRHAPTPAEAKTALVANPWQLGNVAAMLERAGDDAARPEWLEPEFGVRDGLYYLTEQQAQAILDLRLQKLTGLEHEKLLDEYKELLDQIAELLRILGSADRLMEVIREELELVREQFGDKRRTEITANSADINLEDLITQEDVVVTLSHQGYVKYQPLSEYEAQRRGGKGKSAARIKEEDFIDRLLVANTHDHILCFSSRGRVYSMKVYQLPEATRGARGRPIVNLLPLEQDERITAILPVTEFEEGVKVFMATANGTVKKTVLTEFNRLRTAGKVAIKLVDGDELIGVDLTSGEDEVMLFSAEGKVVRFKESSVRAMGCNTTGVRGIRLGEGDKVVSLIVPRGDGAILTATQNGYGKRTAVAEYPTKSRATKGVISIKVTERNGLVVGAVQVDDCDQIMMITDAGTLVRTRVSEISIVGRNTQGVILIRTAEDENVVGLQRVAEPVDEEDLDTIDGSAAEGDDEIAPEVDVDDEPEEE
Protocol: as §2

human topoisomerase IIα = biological target: T5, human topoisomerase IIα (Homo sapiens, UniProt P11388); test: human topoisomerase II alpha relaxation high-throughput assay (selectivity); format: biochemical; settings: residual activity at 100 µM compound; mean ± SD, two independent experiments; read-out: Human TopoIIα (% RA at 100 µM)
T5 construct: purchased Inspiralis (Norwich, UK)
T5 sequence (P11388 whole entry): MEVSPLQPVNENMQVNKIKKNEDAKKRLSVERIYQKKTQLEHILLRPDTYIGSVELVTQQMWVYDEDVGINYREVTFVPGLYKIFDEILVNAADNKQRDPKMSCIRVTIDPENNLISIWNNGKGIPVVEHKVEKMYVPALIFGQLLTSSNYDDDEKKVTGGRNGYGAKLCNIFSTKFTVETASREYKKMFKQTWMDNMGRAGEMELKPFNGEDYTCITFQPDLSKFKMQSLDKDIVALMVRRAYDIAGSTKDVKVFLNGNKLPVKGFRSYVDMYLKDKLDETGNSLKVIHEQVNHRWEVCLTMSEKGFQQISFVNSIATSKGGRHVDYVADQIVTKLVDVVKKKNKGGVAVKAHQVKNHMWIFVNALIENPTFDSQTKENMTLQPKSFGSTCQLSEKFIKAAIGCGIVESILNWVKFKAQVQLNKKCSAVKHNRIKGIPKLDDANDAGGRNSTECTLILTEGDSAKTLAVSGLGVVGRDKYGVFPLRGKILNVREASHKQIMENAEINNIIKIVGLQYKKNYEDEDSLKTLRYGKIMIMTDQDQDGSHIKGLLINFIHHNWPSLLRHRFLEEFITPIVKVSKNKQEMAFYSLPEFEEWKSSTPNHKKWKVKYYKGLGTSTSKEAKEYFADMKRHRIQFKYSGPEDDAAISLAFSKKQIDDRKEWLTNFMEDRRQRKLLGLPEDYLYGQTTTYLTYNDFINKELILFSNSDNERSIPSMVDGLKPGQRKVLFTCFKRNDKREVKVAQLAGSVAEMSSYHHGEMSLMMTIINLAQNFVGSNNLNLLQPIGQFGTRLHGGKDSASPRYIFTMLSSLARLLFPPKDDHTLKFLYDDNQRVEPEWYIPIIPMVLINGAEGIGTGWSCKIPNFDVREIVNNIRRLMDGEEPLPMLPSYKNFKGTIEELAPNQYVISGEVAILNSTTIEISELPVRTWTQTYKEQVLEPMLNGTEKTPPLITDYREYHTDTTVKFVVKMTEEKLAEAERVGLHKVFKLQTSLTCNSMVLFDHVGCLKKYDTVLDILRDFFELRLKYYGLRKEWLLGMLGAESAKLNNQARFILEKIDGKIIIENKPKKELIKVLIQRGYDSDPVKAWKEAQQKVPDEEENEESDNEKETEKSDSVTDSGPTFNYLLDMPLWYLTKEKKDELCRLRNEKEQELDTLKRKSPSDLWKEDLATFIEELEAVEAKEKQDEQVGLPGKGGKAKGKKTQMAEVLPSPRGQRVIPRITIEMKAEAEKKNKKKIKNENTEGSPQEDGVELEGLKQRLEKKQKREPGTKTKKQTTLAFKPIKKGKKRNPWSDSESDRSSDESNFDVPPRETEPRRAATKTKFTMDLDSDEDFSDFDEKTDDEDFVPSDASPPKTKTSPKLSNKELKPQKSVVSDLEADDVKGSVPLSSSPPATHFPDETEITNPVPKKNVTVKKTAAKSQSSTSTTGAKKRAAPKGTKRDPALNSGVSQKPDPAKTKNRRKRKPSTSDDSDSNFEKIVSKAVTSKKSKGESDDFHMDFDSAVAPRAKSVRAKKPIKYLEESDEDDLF
Protocol: For selectivity determination, a human topoisomerase II alpha relaxation high-throughput assay was used. The assay kits and black streptavidin-coated 96-well microtiter plates are available from Inspiralis (Norwich, UK). Two independent measurements were performed with an inhibitory concentration of 100 µM. Raw data were calculated as the mean ± SD percentage of the residual enzyme activity.

A. baumannii = test: MIC, broth microdilution; format: cell-based; settings: Acinetobacter baumannii
Protocol: as §1

S. aureus (ATCC 29213) = test: MIC, broth microdilution; format: cell-based; settings: Staphylococcus aureus, ATCC29213
Protocol: as §1

E. coli ESBL QA-11.3 = test: MIC, broth microdilution; format: cell-based; settings: Escherichia coli
Protocol: as §1

E. coli N43 (CGSC# 5583) = test: MIC, broth microdilution; format: cell-based; settings: Escherichia coli
Protocol: as §1

K. pneumoniae = test: MIC, broth microdilution; format: cell-based; settings: Klebsiella pneumoniae
Protocol: as §1

VRE = test: MIC, broth microdilution; format: cell-based; settings: Enterococcus
Protocol: as §1

E. coli D22 = test: MIC, broth microdilution; format: cell-based; settings: Escherichia coli
Protocol: as §1

E. coli (ATCC 25922) = test: MIC, broth microdilution; format: cell-based; settings: Escherichia coli
Protocol: as §1

E. faecalis RDK 057 = test: MIC, broth microdilution; format: cell-based
Protocol: as §1

P. aeruginosa RDK 184 = test: MIC, broth microdilution; format: cell-based; settings: Pseudomonas aeruginosa
Protocol: as §1

[1] = Table S3, read-out: MIC (μM) MRSA (QA-11.7)
[2] = strain resistant to cefoxitin, ciprofloxacin, clindamycin, erythromycin, tetracycline, thiamulin, trimethoprim, read-out: MIC MRSA (QA-11.7)
[3] = Table S3, read-out: MIC (μM) MRSA(QA-12.1)
[4] = strain resistant to cefoxitin, gentamicin, kanamycin, rifampicin, streptomycin, sulfamethoxazole, tetracycline, read-out: MIC MRSA(QA-12.1)
[5] = Table S3, read-out: MIC (μM) MRSA (QA-11.2)
[6] = Table S3, read-out: MIC (μM) A. baumannii
[7] = Table S3, read-out: MIC (μM) S. aureus (ATCC 29213)
[8] = read-out: MIC S. aureus (ATCC 29213)
[9] = ESBLQA11.3, 20 h, Table S3, read-out: MIC (μM) E. coli ESBL QA:11.3
[10] = ESBLQA11.3, read-out: MIC E. coli ESBL QA-11.3
[11] = read-out: MIC E. coli N43 (CGSC# 5583)
[12] = 20 h, Table S3, read-out: MIC (μM) K. pneumoniae
[13] = Table S3, read-out: MIC (μM) VRE
[14] = D22, Table S3, lpxC mutation, read-out: MIC (μM) E. coli D22
[15] = D22, lpxC mutation that increases membrane permeability, read-out: MIC E. coli D22
[16] = ATCC25922, 20 h, Table S3, read-out: MIC (μM) E. coli (ATCC 25922)
[17] = ATCC25922, read-out: MIC E. coli (ATCC 25922)
[18] = Enterococcus faecalis, RDK057; Table S3; read-out: MIC (μM) E. faecalis DRK 057
[19] = Enterococcus faecalis, RDK057; read-out: MIC E. faecalis RDK 057
[20] = RDK184, 20 h, Table S3, read-out: MIC (μM) P. aeruginosa RDK 184
[21] = RDK184, read-out: MIC P. aeruginosa RDK 184
[22] = ESBLQA11.3, Table S3, read-out: MIC (μM) E. coli ESBL QA:11.3
[23] = Table S3, read-out: MIC (μM) K. pneumoniae
[24] = ATCC25922, Table S3, read-out: MIC (μM) E. coli (ATCC 25922)

SMILES	MIC (MRSA (QA-11.7); [1])	MIC (MRSA (QA-11.7); [2])	MIC (MRSA(QA-12.1); [3])	MIC (MRSA(QA-12.1); [4])	MIC (MRSA (QA-11.2); [5])	MIC (MRSA (QA-11.2); read-out: MIC MRSA (QA-11.2))	IC50 (S. aureus topoIV)	IC50 (S. aureus DNA gyrase)	IC50 (E. coli topoIV)	IC50 (E. coli DNA gyrase)	remaining activity at 100 µM (human topoisomerase IIα)	MIC (A. baumannii; [6])	MIC (A. baumannii; read-out: MIC A. baumannii)	MIC (S. aureus (ATCC 29213); [7])	MIC (S. aureus (ATCC 29213); [8])	MIC (E. coli ESBL QA-11.3; [10])	MIC (E. coli N43 (CGSC# 5583); read-out: MIC (μM) E. coli N43)	MIC (E. coli N43 (CGSC# 5583); [11])	MIC (K. pneumoniae; read-out: MIC K. pneumoniae)	MIC (VRE; [13])	other results
COc1ccc2nccc(OCC3CCC(NCc4ccc(C)cc4)CC3)c2n1 (stereo not shown) [Compound 6]	2.56 µM	1 µg/mL	5.12 µM	2 µg/mL	1.28 µM	0.5 µg/mL	> 100000 nM	403 ± 20 nM	2890 ± 880 nM	1520 ± 361 nM	101%	164 µM	64 µg/mL	2.56 µM	1 µg/mL	> 128 µg/mL	10.2 µM	4 µg/mL	> 128 µg/mL	5.12 µM	MIC (E. coli ESBL QA-11.3; [9]): > 328 µM; MIC (K. pneumoniae; [12]): > 328 µM; MIC (VRE; read-out: MIC VRE): 2 µg/mL; MIC (E. coli D22; [14]): 81.9 µM; MIC (E. coli D22; [15]): 32 µg/mL; MIC (E. coli (ATCC 25922); [16]): > 328 µM; MIC (E. coli (ATCC 25922); [17]): > 128 µg/mL; MIC (E. faecalis RDK 057; [18]): 20.5 µM; MIC (E. faecalis RDK 057; [19]): 8 µg/mL; MIC (P. aeruginosa RDK 184; [20]): > 328 µM; MIC (P. aeruginosa RDK 184; [21]): > 128 µg/mL
COc1ccc2nccc(C(O)CC3CCC(NCc4ccc(C)cc4)CC3)c2n1 (stereo not shown) [Compound 8, 1-(6-Methoxy-1,5-naphthyridin-4-yl)-2-(4-((4-methylbenzyl)amino)cyclohexyl)ethan-1-ol]	0.32 µM	0.125 µg/mL	0.161 µM	0.063 µg/mL	0.082 µM	0.032 µg/mL	2500 ± 252 nM	77 ± 10 nM	83 nM	1320 ± 460 nM	100 ± 1%	5.12 µM	2 µg/mL	0.161 µM	0.063 µg/mL	8 µg/mL	2.56 µM	1 µg/mL	16 µg/mL	0.32 µM	MIC (E. coli ESBL QA-11.3; [22]): 20.5 µM; MIC (K. pneumoniae; [23]): 41 µM; MIC (VRE; read-out: MIC VRE): 0.125 µg/mL; MIC (E. coli D22; D22, read-out: MIC (μM) E. coli D22): 2.56 µM; MIC (E. coli D22; [15]): 1 µg/mL; MIC (E. coli (ATCC 25922); [24]): 20.5 µM; MIC (E. coli (ATCC 25922); [17]): 8 µg/mL; MIC (E. faecalis RDK 057; [18]): 0.64 µM; MIC (E. faecalis RDK 057; [19]): 0.25 µg/mL; MIC (P. aeruginosa RDK 184; [20]): 328 µM; MIC (P. aeruginosa RDK 184; [21]): 128 µg/mL
COc1ccc2nccc(OCC3CCC(NCc4ccc(C)cc4)CO3)c2n1 (stereo not shown) [Compound 7, 6-(((6-Methoxy-1,5-naphthyridin-4-yl)oxy)methyl)-N-(4-methylbenzyl)tetrahydro-2H-pyran-3-amine]	2.56 µM	1 µg/mL	1.28 µM	0.5 µg/mL	0.64 µM	0.25 µg/mL	> 100000 nM	194 ± 18 nM	1530 ± 43 nM	1310 ± 348 nM	101%	164 µM	64 µg/mL	1.28 µM	0.5 µg/mL	> 128 µg/mL	10.2 µM	4 µg/mL	> 128 µg/mL	5.12 µM	MIC (E. coli ESBL QA-11.3; [9]): > 328 µM; MIC (K. pneumoniae; [12]): > 328 µM; MIC (VRE; read-out: MIC VRE): 2 µg/mL; MIC (E. coli D22; [14]): 81.9 µM; MIC (E. coli D22; [15]): 32 µg/mL; MIC (E. coli (ATCC 25922); [16]): > 328 µM; MIC (E. coli (ATCC 25922); [17]): > 128 µg/mL; MIC (E. faecalis RDK 057; Enterococcus faecalis, RDK057, read-out: MIC (μM) E. faecalis DRK 057): 10.2 µM; MIC (E. faecalis RDK 057; [19]): 4 µg/mL; MIC (P. aeruginosa RDK 184; [20]): > 328 µM; MIC (P. aeruginosa RDK 184; [21]): > 128 µg/mL
COc1ccc2nccc(CCN3CCC(NCc4ccc(C)cc4)CC3)c2n1 [Compound 5, 1-(2-(6-Methoxy-1,5-naphthyridin-4-yl)ethyl)-N-(4-methylbenzyl)piperidin-4-amine]	0.041 µM	0.016 µg/mL	0.041 µM	0.016 µg/mL	0.082 µM	0.032 µg/mL	1230 ± 258 nM	145 ± 14 nM	89 ± 19 nM	1019 ± 5 nM	103%	2.56 µM	1 µg/mL	0.082 µM	0.032 µg/mL	4 µg/mL	0.32 µM	0.125 µg/mL	16 µg/mL	0.082 µM	MIC (E. coli ESBL QA-11.3; [22]): 10.2 µM; MIC (K. pneumoniae; [23]): 41 µM; MIC (VRE; read-out: MIC VRE): 0.032 µg/mL; MIC (E. coli D22; [14]): 2.56 µM; MIC (E. coli D22; [15]): 1 µg/mL; MIC (E. coli (ATCC 25922); [24]): 5.12 µM; MIC (E. coli (ATCC 25922); [17]): 2 µg/mL; MIC (E. faecalis RDK 057; Enterococcus faecalis, RDK057, read-out: MIC E. faecalis RDK 057): 0.125 µg/mL; MIC (E. faecalis RDK 057; [18]): 0.32 µM; MIC (P. aeruginosa RDK 184; [20]): > 328 µM; MIC (P. aeruginosa RDK 184; [21]): > 128 µg/mL

Reference: paper PMC10215804, “Exploring Alternative Pathways to Target Bacterial Type II Topoisomerases Using NBTI Antibacterials: Beyond Halogen-Bonding Interactions” (Antibiotics, 2023)
